Like-named read-outs stand apart in the source and are kept apart here.
Assays:
[1] = test system: T1, M. abscessus CIP104536T (S); test: microbe, parasite or virus in culture; design: species or system Mycobacteroides abscessus CIP104536T; antibiotic susceptibility testing, MIC of drugs against M. abscessus strains; conditions: Mycobacteroides abscessus, read-out: MIC (µg/mL) (phenotypea) / S
T1 construct: CIP104536T smooth (S) morphotype
Protocol: (§1) M. abscessus CIP104536^T (S) and CIP104536^T (R) strains used in this study were previously sequenced and their genomic differences identified and characterized ([13], [60]). Mycobacteria were grown in Middlebrook 7H9 broth (BD) supplemented with 0.025% tyloxapol and 10% oleic acid-albumin-dextrose-catalase (OADC) enrichment (7H9^OADC) or on Middlebrook 7H10 agar (BD) containing 10% OADC (7H10^OADC) at 37 °C, with antibiotics when required. A Bio-Rad Gene pulser (25 μF, 2500 V, 800 Ω) was used to transform electrocompetent mycobacteria. After transformation, strains carrying the pMV306 ([48]) derivatives were selected on 250 μg/ml kanamycin.

[2] = test system: T2, M. abscessus CIP104536T (R); test: microbe, parasite or virus in culture; design: species or system Mycobacteroides abscessus CIP104536T; antibiotic susceptibility testing, MIC of drugs against M. abscessus strains; conditions: Mycobacteroides abscessus, read-out: MIC (µg/mL) (phenotypea) / R
T2 construct: CIP104536T rough (R) morphotype
Protocol: as §1

MAB_4111c (Tle) = biological target: T3, MAB_4111c (Tle) (Mycobacteroides abscessus, UniProt B1MIG3); test: reverse reaction, formation of dTDP-Rha (data not shown); format: biochemical; conditions: 60 min, also the product of the forward reaction, partially purified Ni-bead fraction
T3 construct: full-length, 353 residues, six-histidine tag from pET30 (kept), expressed in E. coli BL21 Star DE3; partially purified Ni-bead-enriched fraction
T3 sequence (B1MIG3 entry or part of it): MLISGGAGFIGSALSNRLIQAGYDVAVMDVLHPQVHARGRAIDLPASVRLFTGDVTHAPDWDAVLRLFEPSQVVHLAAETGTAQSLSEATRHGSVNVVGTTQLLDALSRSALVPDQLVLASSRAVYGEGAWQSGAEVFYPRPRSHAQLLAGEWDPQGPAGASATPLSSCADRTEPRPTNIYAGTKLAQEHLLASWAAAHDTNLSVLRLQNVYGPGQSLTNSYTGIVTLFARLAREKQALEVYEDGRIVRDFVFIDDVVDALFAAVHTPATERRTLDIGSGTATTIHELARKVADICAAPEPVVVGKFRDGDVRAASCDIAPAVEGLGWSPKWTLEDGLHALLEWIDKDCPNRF

[3] = test system: T1, M. abscessus CIP104536T (S); test: microbe, parasite or virus in culture; design: species or system Mycobacteroides abscessus CIP104536T; antibiotic susceptibility testing, MIC of drugs against M. abscessus strains; conditions: Mycobacteroides abscessus, read-out: MIC (µg/mL) (phenotypea) / S; remark: listed apart in the source
Protocol: as §1

[4] = test system: T2, M. abscessus CIP104536T (R); test: microbe, parasite or virus in culture; design: species or system Mycobacteroides abscessus CIP104536T; antibiotic susceptibility testing, MIC of drugs against M. abscessus strains; conditions: Mycobacteroides abscessus, read-out: MIC (µg/mL) (phenotypea) / R; remark: listed apart in the source
Protocol: as §1

Row | Structure (SMILES) | MIC [1] | MIC [2] | reverse reaction, formation of dTDP-Rha (data not shown) (MAB_4111c (Tle)) | MIC [3] | MIC [4]
1 | CN(C)c1ccc(O)c2c1C[C@H]1C[C@H]3[C@H](N(C)C)C(O)=C(C(N)=O)C(=O)[C@@]3(O)C(O)=C1C2=O [Minocycline] | > 8 µg/mL | > 8 µg/mL | – | – | –
2 | CC(=O)NC[C@H]1CN(c2ccc(N3CCOCC3)c(F)c2)C(=O)O1 [Linezolid] | 32 µg/mL | 32 µg/mL | – | – | –
3 | Cc1cn([C@H]2C[C@H](O)[C@@H](COP(=O)(O)OP(=O)(O)O[C@H]3O[C@@H](C)[C@@H](O)[C@@H](O)[C@H]3O)O2)c(=O)[nH]c1=O [dTDP-6-d-Tal] | – | – | reverse reaction using dTDP-6-d-Tal as a substrate and observed the formation of dTDP-Rha | – | –
4 | C[C@@H](O)[C@H]1C(=O)N2C(C(=O)O)=C(SCCNC=N)C[C@H]12 [Imipenem] | 64 µg/mL | 64 µg/mL | – | – | –
5 | CC[C@H]1OC(=O)[C@H](C)[C@@H](O[C@H]2C[C@@](C)(OC)[C@@H](O)[C@H](C)O2)[C@H](C)[C@@H](O[C@@H]2O[C@H](C)C[C@H](N(C)C)[C@H]2O)[C@](C)(OC)C[C@@H](C)C(=O)[C@H](C)[C@@H](O)[C@]1(C)O [Clarithromycin] | 8 µg/mL | 4 µg/mL | – | > 16 µg/mL | > 16 µg/mL
6 | NCC[C@H](O)C(=O)N[C@@H]1C[C@H](N)[C@@H](O[C@H]2O[C@H](CN)[C@@H](O)[C@H](O)[C@H]2O)[C@H](O)[C@H]1O[C@H]1O[C@H](CO)[C@@H](O)[C@H](N)[C@H]1O [Amikacin] | 16 µg/mL | 32 µg/mL | – | – | –
7 | COc1c(N2C[C@@H]3CCCN[C@@H]3C2)c(F)cc2c(=O)c(C(=O)O)cn(C3CC3)c12 [Moxifloxacin] | > 8 µg/mL | > 8 µg/mL | – | – | –
8 | CO[C@@]1(NC(=O)Cc2cccs2)C(=O)N2C(C(=O)O)=C(COC(N)=O)CS[C@@H]21 [Cefoxitin] | 64 µg/mL | 128 µg/mL | – | – | –
9 | C[C@H]1c2cccc(O)c2C(=O)C2=C(O)[C@]3(O)C(=O)C(C(N)=O)=C(O)[C@@H](N(C)C)[C@@H]3[C@@H](O)[C@@H]21 [Doxycycline] | > 16 µg/mL | > 16 µg/mL | – | – | –
10 | CO/N=C(\C(=O)N[C@@H]1C(=O)N2C(C(=O)[O-])=C(C[N+]3(C)CCCC3)CS[C@H]12)c1csc(N)n1 [Cefepime] | > 32 µg/mL | > 32 µg/mL | – | – | –
11 | CN(C)c1cc(NC(=O)CNC(C)(C)C)c(O)c2c1C[C@H]1C[C@H]3[C@H](N(C)C)C(O)=C(C(N)=O)C(=O)[C@@]3(O)C(O)=C1C2=O [Tigecycline] | 0.5 µg/mL | 1 µg/mL | – | – | –
12 | CO/N=C(\C(=O)N[C@@H]1C(=O)N2C(C(=O)O)=C(CSc3nc(=O)c(O)nn3C)CS[C@H]12)c1csc(N)n1 [Ceftriaxone] | > 64 µg/mL | > 64 µg/mL | – | – | –
13 | CO[C@H]1/C=C/O[C@@]2(C)Oc3c(C)c(O)c4c(c3C2=O)C2=NC3(CCN(CC(C)C)CC3)NC2=C(NC(=O)/C(C)=C\C=C\[C@H](C)[C@H](O)[C@@H](C)[C@@H](O)[C@@H](C)[C@H](OC(C)=O)[C@@H]1C)C4=O [Rifabutin] | 64 µg/mL | 16 µg/mL | – | – | –
14 | NC[C@H]1O[C@H](O[C@H]2[C@H](O)[C@@H](O[C@H]3O[C@H](CO)[C@@H](O)[C@H](N)[C@H]3O)[C@H](N)C[C@@H]2N)[C@H](N)C[C@@H]1O [Tobramycin] | 16 µg/mL | 16 µg/mL | – | – | –

Source: paper PMC11549994, “A dTDP-L-rhamnose 4-epimerase required for glycopeptidolipid biosynthesis in Mycobacterium abscessus” (The Journal of Biological Chemistry, 2024)
